Source: patent US8063225B2, “Tricyclic compound derivatives useful in the treatment of neoplastic diseases, inflammatory disorders and immunomodulatory disorders” (Chembridge Corporation, priority 2006, dated 2011)

Assays:
Jak2 = molecular target: T1, Jak2 (Homo sapiens, UniProt O60674); assay: Tyrosine kinase assay (Kinase-Glo or AlphaScreen), Jak2; details: biochemical tyrosine kinase assay
T1 construct: 6×His- or GST-tagged kinase domain fragments of the corresponding RTKs expressed in baculovirus system; host or cells: baculovirus system
How it was run: (§1)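 Test compounds, eight concentrations from 1 nM to 20 μM, were incubated with tagged recombinant kinase domain, poly(Glu-Tyr, 4:1) and 10 μM ATP. After 60 minutes at 37° C, Kinase-Glo luminescence quantified unconsumed ATP.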

Alk = molecular target: T2, Alk (Homo sapiens, UniProt Q9UM73); assay: Tyrosine kinase assay (Kinase-Glo or AlphaScreen), Alk; details: biochemical tyrosine kinase assay
T2 construct: 6×His- or GST-tagged kinase domain fragments of the corresponding RTKs expressed in baculovirus system; host or cells: baculovirus system
How it was run: as §1

IGF1R tyrosine kinase = molecular target: T3, IGF1R tyrosine kinase (Homo sapiens, UniProt P08069); assay: IGF1R tyrosine kinase assay (Kinase-Glo ATP depletion or PT66/PT100 AlphaScreen); details: biochemical tyrosine kinase assay
T3 construct: 6×His- or GST-tagged kinase domain fragments of the corresponding RTKs expressed in baculovirus system; host or cells: baculovirus system
How it was run: as §1

K562 = assay: Cell proliferation inhibition, Cell Titer-Glo, K562; format: cell-based; details: Homo sapiens; cell proliferation assay, K562 cells
How it was run: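 K562 cells were seeded at 2500-5000 cells per well in white, clear-bottomed 384-well culture plates and treated with dilutions of test compounds for typically 3 days. Viable cells were quantified with the Cell Titer-Glo Luminescent Cell Viability Assay (Promega), which measures total ATP, read on a luminescence plate reader to derive IC50 values for proliferation inhibition.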

InsR = molecular target: T4, InsR (Homo sapiens, UniProt P06213); assay: Tyrosine kinase assay (Kinase-Glo or AlphaScreen), InsR; details: biochemical tyrosine kinase assay
T4 construct: 6×His- or GST-tagged kinase domain fragments of the corresponding RTKs expressed in baculovirus system; host or cells: baculovirus system
How it was run: as §1

Ba/F3 = assay: Cell proliferation inhibition, Cell Titer-Glo, Ba/F3; format: cell-based; details: Mus musculus, BaF3; cell proliferation assay, Ba/F3 cells
How it was run: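 Ba/F3 cells were seeded at 2500-5000 cells per well in white, clear-bottomed 384-well culture plates and exposed to serial dilutions of test compounds for 3 days. Cell Titer-Glo Luminescent Cell Viability Assay (Promega) reagent, which measures total ATP as an indicator of metabolic activity, was added. Luminescence was read on a multiwell plate reader to derive IC50 values for inhibition of proliferation.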

H929 (multiple myeloma) = assay: Cell proliferation inhibition, Cell Titer-Glo, H929; format: cell-based; details: Homo sapiens, NCI-H929; cell proliferation assay, H929 cells
Method: IGF1R and other tyrosine kinase inhibitors can inhibit the proliferation of certain cancer cell lines indicating their possible therapeutic utility for treating the corresponding cancer types. Cancer cell lines of interest and control normal lines, including CHO, HEK293, BA/F3, MM1, H929, COLO205, PC3, DU145, MCF7, Panc1, ACHN, Hep G2, H460, K562, TT, U87-G, CAOV-3, SK-MEL5, Karpas 299, are plated in white, clear-bottomed 384-well cell culture plates at 2500-5000 cells per well and supplied with dilutions of tested compounds After a desired period of time (typically 3 days), the number of viable cells is quantitated by using Cell Titer-Glo Luminescent Cell Viability Assay (Promega), a cell proliferation assay system based on detection of total amount of ATP present as a measure of cell metabolic activity. The plated cells are mixed with the Cell Titer-Glo developing reagent and counted in a luminescence multiwell plate reader according to the standard manufacturer's protocol to generate IC50 curves for cell proliferation inhibition.
IGF1R and other tyrosine kinase inhibitors can inhibit the proliferation of certain cancer cell lines indicating their possible therapeutic utility for treating the corresponding cancer types. Cancer cell lines of interest and control normal lines, including CHO, HEK293, BA/F3, COLO205, PC3, DU145, MCF7, Panc1, ACHN, Hep G2, H460, K562, TT, U87-MG, CAOV-3, SK-MEL5, Karpas 299 and human multiple myeloma cell lines H929, MM1s, MM1r, UTMC2, CPM2, KMS11, My5, KMS12PE, My7, JJN3, KMS18, U266, SKMM2, RPMI-8226 are plated in white, clear-bottomed 384-well cell culture plates at 2500-5000 cells per well and supplied with dilutions of tested compounds After a desired period of time (typically 3 days), the number of viable cells is quantitated by using Cell Titer-Glo Luminescent Cell Viability Assay (Promega), a cell proliferation assay system based on detection of total amount of ATP present as a measure of cell metabolic activity. The plated cells are mixed with the Cell Titer-Glo developing reagent and counted in a luminescence multiwell plate reader according to the standard manufacturer's protocol to generate IC50 curves for cell proliferation inhibition. Results are typically reported as percent of growth (% viability =(OD72h(compound)−ODday0))/(OD72h(no compound)−ODday0). Alternatively, viable cells are quantitated by using the conventional colorimetric MTT assay. The MTT assay is based on the cleavage of the yellow tetrazolium salt MTT to purple formazan crystal by metabolic active cells. The formazan is then solubilized, and the concentration determined by optical density at 570 nm. The cells plated and incubated with a compound as described above are supplemented with the solution of MTT and incubated for 2-3 hours. The growth medium is removed and dimethyl sulfoxide is added into each well to dissolve the formazan. The absorbance is measured on an ELISA plate reader with a test wavelength of 570 nm and a background subtraction wavelength of 630 nm to obtain sample signal (OD570-OD630). […] The results are reported in terms of IC50 value for a particular compound and a cell line in the standard 3-day proliferation assay using Cell Titer-Glo. […] The results are reported in terms of IC50 value for a particular compound and a cell line in the standard 3-day proliferation assay using MTT assay.

Karpas-299 = assay: Cell proliferation inhibition, Cell Titer-Glo, Karpas-299; format: cell-based; details: Homo sapiens; cell proliferation assay, Karpas-299 cells
How it was run: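 Karpas 299 cells were seeded into white, clear-bottomed 384-well culture plates at 2500-5000 cells per well and exposed to serial dilutions of test compounds for about 3 days. Viable cell numbers were then measured with the Cell Titer-Glo Luminescent Cell Viability Assay (Promega), which detects total ATP, and IC50 values for proliferation inhibition were derived.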

T1 sequence (O60674 849-1124 limits assumed, species assumed): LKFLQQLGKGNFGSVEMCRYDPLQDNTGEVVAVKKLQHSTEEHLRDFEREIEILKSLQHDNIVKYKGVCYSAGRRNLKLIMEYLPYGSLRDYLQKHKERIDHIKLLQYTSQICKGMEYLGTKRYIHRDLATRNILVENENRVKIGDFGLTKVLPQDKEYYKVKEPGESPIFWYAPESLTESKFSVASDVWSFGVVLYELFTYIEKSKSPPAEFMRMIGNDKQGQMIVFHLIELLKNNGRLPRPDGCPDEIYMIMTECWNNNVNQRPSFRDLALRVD
T2 sequence (Q9UM73 1116-1392 limits assumed, species assumed): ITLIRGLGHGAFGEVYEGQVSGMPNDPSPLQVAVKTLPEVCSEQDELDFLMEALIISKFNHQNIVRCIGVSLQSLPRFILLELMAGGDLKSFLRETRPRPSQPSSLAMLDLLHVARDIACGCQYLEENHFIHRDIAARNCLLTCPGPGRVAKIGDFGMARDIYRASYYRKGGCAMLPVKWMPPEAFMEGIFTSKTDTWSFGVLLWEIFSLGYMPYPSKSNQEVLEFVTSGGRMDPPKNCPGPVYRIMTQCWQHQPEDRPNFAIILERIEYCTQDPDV
T3 sequence (P08069 999-1274 limits assumed): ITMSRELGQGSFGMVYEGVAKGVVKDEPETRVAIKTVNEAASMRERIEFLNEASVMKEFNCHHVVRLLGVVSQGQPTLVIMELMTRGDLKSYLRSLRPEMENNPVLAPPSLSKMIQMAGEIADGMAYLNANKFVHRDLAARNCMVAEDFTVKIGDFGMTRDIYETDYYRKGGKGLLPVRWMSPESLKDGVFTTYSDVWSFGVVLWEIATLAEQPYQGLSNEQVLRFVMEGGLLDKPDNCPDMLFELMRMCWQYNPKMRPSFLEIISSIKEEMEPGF
T4 sequence (P06213 1023-1298 limits assumed, species assumed): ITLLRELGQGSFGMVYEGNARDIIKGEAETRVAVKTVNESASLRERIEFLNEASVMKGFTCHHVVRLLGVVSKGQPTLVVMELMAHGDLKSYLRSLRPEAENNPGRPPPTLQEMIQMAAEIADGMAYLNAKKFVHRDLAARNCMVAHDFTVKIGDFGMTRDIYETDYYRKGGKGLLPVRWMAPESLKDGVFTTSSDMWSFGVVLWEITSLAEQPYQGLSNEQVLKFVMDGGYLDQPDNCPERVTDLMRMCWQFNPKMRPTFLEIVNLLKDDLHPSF

Compound | IC50 (Jak2) [µM] | IC50 (Alk) [µM] | IC50 (IGF1R tyrosine kinase) [µM] | IC50 (K562) [µM] | IC50 (InsR) [µM] | IC50 (Ba/F3) [µM] | IC50 (H929 (multiple myeloma)) [µM] | IC50 (Karpas-299) [µM]
CN1CCC(N2C(=O)c3cc4nc(-c5c(NCC(O)COc6cccc(Cl)c6)cc[nH]c5=O)[nH]c4cc3C2=O)CC1 (stereo not shown) [compound 38] | 0.5 to 5 | 0.5 to 5 | 0.5 to 5 | 5 to 15 | 0.5 to 5 | > 15 | 0.5 to 5 | > 15
Cc1ccc(OC[C@H](O)CNc2cc[nH]c(=O)c2-c2nc3cc4c(cc3[nH]2)C(=O)N(CC2CCN(CCO)CC2)C4=O)c(C)c1 [compound 118] | 0.5 to 5 | 0.5 to 5 | < 0.5 | > 15 | < 0.5 | > 15 | > 15 | 5 to 15
COC[C@@H](C)N1C(=O)c2cc3nc(-c4c(NC[C@@H](O)c5cccc(Cl)c5)cc[nH]c4=O)[nH]c3cc2C1=O [compound 30] | > 15 | > 15 | > 15 | > 15 | > 15 | > 15 | > 15 | > 15
CN1CCC(N2C(=O)c3cc4nc(-c5c(NC[C@@H](O)COc6ccc7c8c6CCCN8CCC7)cc[nH]c5=O)[nH]c4cc3C2=O)CC1 [compound 86] | 0.5 to 5 | 0.5 to 5 | 0.5 to 5 | 5 to 15 | 5 to 15 | > 15 | > 15 | 5 to 15
Cc1ccc(OC[C@H](O)CNc2cc[nH]c(=O)c2-c2nc3cc4c(cc3[nH]2)C(=O)N(C2CCN(CCCO)CC2)C4=O)c(C)c1 [compound 129] | 0.5 to 5 | 0.5 to 5 | < 0.5 | 5 to 15 | < 0.5 | 5 to 15 | 5 to 15 | 5 to 15
CN1CCC(N2C(=O)c3cc4nc(-c5c(NCCc6c[nH]cn6)cc[nH]c5=O)[nH]c4cc3C2=O)CC1 [compound 4] | 0.5 to 5 | 0.5 to 5 | 0.5 to 5 | 5 to 15 | 0.5 to 5 | 5 to 15 | 5 to 15 | 0.5 to 5
Cc1ccc(OC[C@H](O)CNc2cc[nH]c(=O)c2-c2nc3cc4c(cc3[nH]2)C(=O)N(C2CCN(CCO)CC2)C4=O)c(C)c1 [compound 123] | 0.5 to 5 | 0.5 to 5 | < 0.5 | > 15 | 0.5 to 5 | > 15 | > 15 | > 15
Cc1c(Cl)cccc1OC[C@H](O)CNc1cc[nH]c(=O)c1-c1nc2cc3c(cc2[nH]1)C(=O)N(CC(C)(C)CN(C)C)C3=O [compound 117] | 0.5 to 5 | 5 to 15 | < 0.5 | > 15 | < 0.5 | > 15 | > 15 | 5 to 15
COCCN1C(=O)c2cc3nc(-c4c(NC[C@@H](O)c5cccc(Cl)c5)cc[nH]c4=O)[nH]c3cc2C1=O [compound 36] | > 15 | > 15 | > 15 | > 15 | > 15 | > 15 | 0.5 to 5 | > 15
O=C1c2cc3nc(-c4c(NC[C@@H](O)COc5c(F)ccc(Cl)c5F)cc[nH]c4=O)[nH]c3cc2C(=O)N1C1CCN(CCCO)CC1 [compound 136] | 0.5 to 5 | 0.5 to 5 | < 0.5 | > 15 | 0.5 to 5 | > 15 | > 15 | > 15
COc1cc(C#N)ccc1OC[C@H](O)CNc1ccnc(O)c1-c1nc2cc3c(cc2[nH]1)C(=O)N(C1CCN(C)CC1)C3=O [compound 90] | 0.5 to 5 | > 15 | 5 to 15 | 0.5 to 5 | 5 to 15 | 5 to 15 | 5 to 15 | 0.5 to 5
Cc1ccc(OC[C@H](O)CNc2cc[nH]c(=O)c2-c2nc3cc4c(cc3[nH]2)C(=O)N(C2CCN(CCN(C)C)CC2)C4=O)c(C)c1 [compound 126] | 0.5 to 5 | 5 to 15 | < 0.5 | 5 to 15 | 0.5 to 5 | 0.5 to 5 | 5 to 15 | 0.5 to 5
Cc1c(Cl)cccc1OC[C@H](O)CNc1cc[nH]c(=O)c1-c1nc2cc3c(cc2[nH]1)C(=O)N(C1CCN(CCO)CC1)C3=O [compound 124] | 0.5 to 5 | 0.5 to 5 | 0.5 to 5 | > 15 | 0.5 to 5 | > 15 | > 15 | 5 to 15
COc1ccc(OCC(O)CNc2cc[nH]c(=O)c2-c2nc3cc4c(cc3[nH]2)C(=O)N(C2CCN(C)CC2)C4=O)cc1 (stereo not shown) [compound 42] | 5 to 15 | 5 to 15 | < 0.5 | 5 to 15 | 0.5 to 5 | > 15 | 5 to 15 | > 15
